Source: ChEMBL document CHEMBL3045787, “Synthesis of novel 1,4-naphthoquinone derivatives: antibacterial and antifungal agents” (2013)
≈ marks a conversion by molar mass, not a printed value. Calls of active or inactive are those of the source. The rule behind the calls is not given here.

Experiments:
Staphylococcus aureus [1] = test: Antibacterial activity against Staphylococcus aureus 209-P assessed as growth inhibition at 0.5% after 24 hr by agar disk diffusion method; format: functional
Escherichia coli [2] = test: Antibacterial activity against Escherichia coli B 906 assessed as growth inhibition after 24 to 72 hr by serial dilution method; format: functional, organism-based
Escherichia coli [3] = test: Antibacterial activity against Escherichia coli B 906 assessed as growth inhibition at 0.1% after 24 hr by agar disk diffusion method; format: functional
Escherichia coli [4] = test: Antibacterial activity against Escherichia coli B 906 assessed as growth inhibition at 0.5% after 24 hr by agar disk diffusion method; format: functional
Yamadazyma tenuis [5] = test: Antifungal activity against Candida tenuis assessed as growth inhibition after 24 to 72 hr by serial dilution method; format: functional
Mycobacterium [6] = test: Antibacterial activity against Mycobacterium luteum B-917 assessed as growth inhibition after 24 to 72 hr by serial dilution method; format: functional
Mycobacterium [7] = test: Antibacterial activity against Mycobacterium luteum B-917 assessed as growth inhibition at 0.5% after 24 hr by agar disk diffusion method; format: functional
Aspergillus niger [8] = test: Antifungal activity against Aspergillus niger assessed as growth inhibition after 24 to 72 hr by serial dilution method; format: functional
Staphylococcus aureus [9] = test: Antibacterial activity against Staphylococcus aureus 209-P assessed as growth inhibition at 0.1% after 24 hr by agar disk diffusion method; format: functional
Mycobacterium [10] = test: Antibacterial activity against Mycobacterium luteum B-917 assessed as growth inhibition at 0.1% after 24 hr by agar disk diffusion method; format: functional
Aspergillus niger [11] = test: Antifungal activity against Aspergillus niger assessed as growth inhibition at 0.1% after 48 to 72 hr by agar disk diffusion method; format: functional
Staphylococcus aureus [12] = test: Antibacterial activity against Staphylococcus aureus 209-P assessed as growth inhibition after 24 to 72 hr by serial dilution method; format: functional
Yamadazyma tenuis [13] = test: Antifungal activity against Candida tenuis assessed as growth inhibition at 0.1% after 48 to 72 hr by agar disk diffusion method; format: functional
Yamadazyma tenuis [14] = test: Antifungal activity against Candida tenuis assessed as growth inhibition at 0.5% after 48 to 72 hr by agar disk diffusion method; format: functional
Aspergillus niger [15] = test: Antifungal activity against Aspergillus niger assessed as growth inhibition at 0.5% after 48 to 72 hr by agar disk diffusion method; format: functional

SMILES | MIC (Escherichia coli [2]) | MIC (Yamadazyma tenuis [5]) | MIC (Mycobacterium [6]) | MIC (Aspergillus niger [8]) | MIC (Staphylococcus aureus [12]) | diameter of the inhibition zone (DIZ) (Staphylococcus aureus [1]) [mm] | diameter of the inhibition zone (DIZ) (Escherichia coli [3]) [mm] | diameter of the inhibition zone (DIZ) (Escherichia coli [4]) [mm] | diameter of the inhibition zone (DIZ) (Mycobacterium [7]) [mm] | diameter of the inhibition zone (DIZ) (Staphylococcus aureus [9]) [mm] | diameter of the inhibition zone (DIZ) (Mycobacterium [10]) [mm] | diameter of the inhibition zone (DIZ) (Aspergillus niger [11]) [mm] | diameter of the inhibition zone (DIZ) (Yamadazyma tenuis [13]) [mm] | diameter of the inhibition zone (DIZ) (Yamadazyma tenuis [14]) [mm] | diameter of the inhibition zone (DIZ) (Aspergillus niger [15]) [mm]
O=C1C(SCc2ccc(Cl)cc2)=C(N2CCSCC2)C(=O)c2ccccc21 | inactive | 7.8 µg/mL (≈ 18.8 µM) | 125 µg/mL (≈ 301 µM) | 31.2 µg/mL (≈ 75 µM) | inactive | 0 | 0 | 0 | 13.4 | 0 | 7 | 0 | 0 | 0 | 0
O=C1C(Sc2ccc(O)cc2)=C(Sc2ccc(O)cc2)C(=O)c2ccccc21 | inactive | 7.8 µg/mL (≈ 19.2 µM) | 250 µg/mL (≈ 615 µM) | 7.8 µg/mL (≈ 19.2 µM) | 125 µg/mL (≈ 308 µM) | 9.7 | 0 | 0 | 12.7 | 6 | 7 | 0 | 0 | 0 | 8
O=C1C(SCc2ccc(Cl)cc2)=C(N2CCCCC2)C(=O)c2ccccc21 | inactive | inactive | 250 µg/mL (≈ 628 µM) | inactive | inactive | 0 | 0 | 0 | 9 | 0 | 0 | 0 | 0 | 0 | 0

More lines, main results first:

MIC (Escherichia coli [2]) | MIC (Yamadazyma tenuis [5]) | MIC (Mycobacterium [6]) | MIC (Aspergillus niger [8]) | MIC (Staphylococcus aureus [12]) | SMILES | diameter of the inhibition zone (DIZ) (Staphylococcus aureus [1]) [mm] | diameter of the inhibition zone (DIZ) (Escherichia coli [3]) [mm] | diameter of the inhibition zone (DIZ) (Escherichia coli [4]) [mm] | diameter of the inhibition zone (DIZ) (Mycobacterium [7]) [mm] | diameter of the inhibition zone (DIZ) (Staphylococcus aureus [9]) [mm] | diameter of the inhibition zone (DIZ) (Mycobacterium [10]) [mm] | diameter of the inhibition zone (DIZ) (Aspergillus niger [11]) [mm] | diameter of the inhibition zone (DIZ) (Yamadazyma tenuis [13]) [mm] | diameter of the inhibition zone (DIZ) (Yamadazyma tenuis [14]) [mm] | diameter of the inhibition zone (DIZ) (Aspergillus niger [15]) [mm]
inactive | 15.6 µg/mL (≈ 39.5 µM) | 7.8 µg/mL (≈ 19.8 µM) | 15.6 µg/mL (≈ 39.5 µM) | 250 µg/mL (≈ 634 µM) | COC(=O)CCSC1=C(SCCC(=O)OC)C(=O)c2ccccc2C1=O | 13.4 | 0 | 0 | 19.7 | 10 | 15.4 | 12.4 | 10 | 15 | 14.7
inactive | inactive | inactive | inactive | inactive | O=C1C(Cl)=C(N2CCC(C(O)(c3ccccc3)c3ccccc3)CC2)C(=O)c2ccccc21 | 0 | 0 | 0 | 9 | 0 | 7.5 | 0 | 0 | 0 | 0
